≈ marks a conversion by molar mass, not a printed value. Where “and” joins values, the source holds several entries; their conditions need not be identical. Identical values can stand only once. Like-named read-outs stand apart in the source and are kept apart here.

The term MFC denotes the lowest tested concentration that kills the fungus rather than only halting it. As usually defined, the melting point is the temperature of the solid-liquid transition.

Series [1] deals with Cryptococcus neoformans ATCC 90113. The series is described as follows: In vitro antifungal susceptibility testing (modified NCCLS method). Format: cell-based. The following applies: for IC50: read-out: IC50 (50% inhibitory concentration).
The subject of another series is C. krusei ATCC 6258. Description: In vitro antimicrobial assay (modified NCCLS), Candida media pH 4.5. Format: cell-based, Candida krusei. The following applies: C. krusei ATCC 6258, pH 4.5; for IC50: Pichia kudriavzevii, ATCC6258, read-out: IC50 (50% inhibitory concentration).
For the next series, the system named is C. albicans ATCC 90028. The series is described as above. Format: cell-based, Candida albicans. The following applies: C. albicans ATCC 90028, pH 4.5, Table 3; for IC50: read-out: IC50 (50% inhibitory concentration).
In the next series the test system is C. glabrata ATCC 90030. Described as above. Format: cell-based, Candida glabrata. The following applies: C. glabrata ATCC 90030, pH 4.5; for IC50: read-out: IC50 (50% inhibitory concentration).
Series [2] has as its system Candida albicans ATCC 90028. Description: In vitro antifungal susceptibility testing (modified NCCLS method), media pH 7.3. Type of series: cell-based. The following applies: Candida albicans ATCC 90028, Table 1.
The subject of series [3] is M. intracellulare ATCC 23068. Description: In vitro antibacterial assay (modified method of Franzblau, Alamar Blue). Type of series: cell-based. The following applies: Mycobacterium intracellulare, ATCC23068, M. intracellulare ATCC 23068; for IC50: read-out: IC50 (50% inhibitory concentration); for MBC: read-out: MBC (Minimum Bactericidal Concentration). A general note: Resazurin is reduced to fluorescent resorufin, in cell work by metabolically active cells.

In series [4] the test system is several cancer cell lines. The following applies: background; cited from earlier work.
The target in a further series is human chymase (Homo sapiens, UniProt P23946). The following applies: background; cited from earlier work.
Series [5] has as its system wheat leaf rust caused by Puccinia recondite. The following applies: background; cited from earlier work.
Where [6] appears, read: Cr. neoformans ATCC 90113, Table 3.
The mark [7] stands for this setting: Cryptococcus neoformans ATCC 90113, Table 1.
Setting [8] is: Cryptococcus neoformans, ATCC90113, Cr. neoformans ATCC 90113, Table 3.
[9] abbreviates: Candida albicans, ATCC90028, read-out: MFC.
The mark [10] stands for this setting: Candida albicans, ATCC90028, read-out: MIC.
The mark [11] stands for this setting: Nakaseomyces glabratus, ATCC90030.
[12] abbreviates: Nakaseomyces glabratus, ATCC90030, read-out: MFC.
The mark [13] stands for this setting: Nakaseomyces glabratus, ATCC90030, read-out: MIC.

Chain of human chymase (P23946 22-247): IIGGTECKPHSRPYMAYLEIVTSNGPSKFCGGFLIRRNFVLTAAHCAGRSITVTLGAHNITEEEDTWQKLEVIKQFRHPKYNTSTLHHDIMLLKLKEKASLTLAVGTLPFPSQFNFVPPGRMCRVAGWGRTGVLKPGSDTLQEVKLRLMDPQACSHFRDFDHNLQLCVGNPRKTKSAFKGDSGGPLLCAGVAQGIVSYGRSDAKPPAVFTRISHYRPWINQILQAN

`C[C@@H]1[C@H](O)[C@@H](C)/C=C/C=C/C=C/C=C/C=C/C=C/C=C/[C@H](O[C@@H]2O[C@H](C)[C@@H](O)[C@H](N)[C@@H]2O)C[C@@H]2O[C@](O)(C[C@@H](O)C[C@@H](O)[C@H](O)CC[C@@H](O)C[C@@H](O)CC(=O)O[C@H]1C)C[C@H](O)[C@H]2C(=O)O` [Amphotericin B, reference compound]: the “IC50 (50% inhibitory concentration)” value was found to be 0.50 µg/mL (≈ 0.541 µM) in [1] (setting [6]), 0.45 µg/mL (≈ 0.487 µM) with C. krusei ATCC 6258, 0.45 µg/mL (≈ 0.487 µM) in the series on C. albicans ATCC 90028 and 0.20 µg/mL (≈ 0.216 µM) with C. glabrata ATCC 90030. Also, the minimal fungicidal concentration (MFC) (in [1] (setting [6]); with C. krusei ATCC 6258; against C. albicans ATCC 90028; against C. glabrata ATCC 90030) was 1.25 µg/mL (≈ 1.35 µM) in each case. For the same compound, the MIC (in [1] (setting [6]); in the series on C. krusei ATCC 6258; with C. albicans ATCC 90028; with C. glabrata ATCC 90030) was 1.25 µg/mL (≈ 1.35 µM) in each case. Further, the MFC (Minimum Fungicidal Concentration) was determined as 2.5 µg/mL (≈ 2.71 µM) in series [1] (setting [7]) and 5.00 µg/mL (≈ 5.41 µM) in series [2]. Further, the MIC (Minimum Inhibitory Concentration) was 2.5 µg/mL (≈ 2.71 µM) in [1] (setting [7]) and 2.50 µg/mL (≈ 2.71 µM) in series [2].
In the case of `CC1=CC(=O)/C(=C(O)/C=C/c2ccccc2)C1=O` [Compound 2, coruscanone B], the melting point is 125 °C and 124 °C. In addition, in [1] (setting [8]), the IC50 was found to be 20 µg/mL (≈ 83.2 µM). In addition, the IC50 in the series with C. krusei ATCC 6258 came to 4.5 µg/mL (≈ 18.7 µM). Also, in [3], the MIC was 20 µg/mL (≈ 83.2 µM) and the IC50 was 10 µg/mL (≈ 41.6 µM). Besides, the IC50 in the series with C. albicans ATCC 90028 (Candida albicans, ATCC90028) was determined as 1 µg/mL (≈ 4.16 µM). For the same compound, the MFC in the series with C. albicans ATCC 90028 (setting [9]) amounted to 5 µg/mL (≈ 20.8 µM). In addition, in the series on C. albicans ATCC 90028 (setting [10]), the MIC was 2.5 µg/mL (≈ 10.4 µM). Besides, the IC50 in the series on C. glabrata ATCC 90030 (setting [11]) was determined as 1.5 µg/mL (≈ 6.24 µM). In addition, the MFC in the series with C. glabrata ATCC 90030 (setting [12]) was 5 µg/mL (≈ 20.8 µM). In addition, the MIC in the series with C. glabrata ATCC 90030 (setting [13]) is 2.5 µg/mL (≈ 10.4 µM). Moreover, the MIC in [2] (ATCC90028, read-out: MIC (Minimum Inhibitory Concentration)) was 50 µg/mL (≈ 208 µM).
For `COC(C)=C1C(=O)C=C(C)C1=O` [Compound 6, 2-(1-methoxy-ethylidene)-4-methyl-cyclopent-4-ene-1,3-dione], the IC50 came out at 5 µg/mL (≈ 30.1 µM) in [1] (setting [8]); 10 µg/mL (≈ 60.2 µM) in the series with C. krusei ATCC 6258; 2 µg/mL (≈ 12 µM) in the series with C. albicans ATCC 90028 (Candida albicans, ATCC90028); 3.5 µg/mL (≈ 21.1 µM) in the series with C. glabrata ATCC 90030 (setting [11]). Also, the minimal fungicidal concentration (MFC) in the series on C. albicans ATCC 90028 (setting [9]) turned out to be 20 µg/mL (≈ 120 µM). Further, the MIC in the series with C. albicans ATCC 90028 (setting [10]) and in the series with C. glabrata ATCC 90030 (setting [13]) was 5 µg/mL (≈ 30.1 µM) in each case.
On to `CCOC(/C=C/c1ccccc1)=C1/C(=O)C=C(C)C1=O` [Compound 7], for which the IC50 in [1] (setting [8]) came out at 2 µg/mL (≈ 7.45 µM); with C. krusei ATCC 6258, 8 µg/mL (≈ 29.8 µM); in [3], 7.5 µg/mL (≈ 28 µM); with C. albicans ATCC 90028 (Candida albicans, ATCC90028), 2 µg/mL (≈ 7.45 µM); in the series on C. glabrata ATCC 90030 (setting [11]), 4.5 µg/mL (≈ 16.8 µM). Besides, the MIC in [1] (Cryptococcus neoformans, ATCC90113, Cr. neoformans ATCC 90113, Table 3, read-out: MIC) turned out to be 20 µg/mL (≈ 74.5 µM); in series [3], 20 µg/mL (≈ 74.5 µM); with C. albicans ATCC 90028 (setting [10]), 5 µg/mL (≈ 18.6 µM); with C. glabrata ATCC 90030 (setting [13]), 10 µg/mL (≈ 37.3 µM). Also, in series [3], the MBC came to 20 µg/mL (≈ 74.5 µM). The results for the minimal fungicidal concentration (MFC) in the series with C. albicans ATCC 90028 (setting [9]) and in the series with C. glabrata ATCC 90030 (setting [12]) were 10 µg/mL (≈ 37.3 µM) and 20 µg/mL (≈ 74.5 µM), respectively.
For `CC(=O)OC(/C=C/c1ccccc1)=C1/C(=O)C=C(C)C1=O` [Compound 8], the IC50 in series [1] (setting [8]) was 4.5 µg/mL (≈ 15.9 µM); with C. krusei ATCC 6258 it was 9 µg/mL (≈ 31.9 µM); in [3] it was 15 µg/mL (≈ 53.1 µM); with C. albicans ATCC 90028 (Candida albicans, ATCC90028) it was 1 µg/mL (≈ 3.54 µM); in the series on C. glabrata ATCC 90030 (setting [11]) it was 5.5 µg/mL (≈ 19.5 µM). Further, the MIC was determined as 20 µg/mL (≈ 70.8 µM) in series [3] and 10 µg/mL (≈ 35.4 µM) in the series with C. albicans ATCC 90028 (setting [10]). Besides, in series [3], the MBC came to 20 µg/mL (≈ 70.8 µM).
With `COC(/C=C/c1ccccc1)=C1C(=O)C(OC)=C(OC)C1=O` [methyllinderone], in series [4], the “Cytotoxicity (in words)” value is given as “cytotoxic”. Further, the “Inhibition of human chymase (in words)” value at human chymase was “moderate inhibitor”.
For `COC1=CC(=O)/C(=C(\C=C\c2ccccc2)OC)C1=O` [methyllucidone], the “Antifungal activity against wheat leaf rust (in words)” value in series [5] is “moderately antifungal activity”.
